Measurements taken from article PMC12645469 (Nature structural & molecular biology, 2024).

Columns and labels:
[1] = target: T1, NaDC3 (Homo sapiens, UniProt Q8WWT9); assay: intrinsic tryptophan fluorescence quenching; type: binding
T1 sequence (Q8WWT9 1-602): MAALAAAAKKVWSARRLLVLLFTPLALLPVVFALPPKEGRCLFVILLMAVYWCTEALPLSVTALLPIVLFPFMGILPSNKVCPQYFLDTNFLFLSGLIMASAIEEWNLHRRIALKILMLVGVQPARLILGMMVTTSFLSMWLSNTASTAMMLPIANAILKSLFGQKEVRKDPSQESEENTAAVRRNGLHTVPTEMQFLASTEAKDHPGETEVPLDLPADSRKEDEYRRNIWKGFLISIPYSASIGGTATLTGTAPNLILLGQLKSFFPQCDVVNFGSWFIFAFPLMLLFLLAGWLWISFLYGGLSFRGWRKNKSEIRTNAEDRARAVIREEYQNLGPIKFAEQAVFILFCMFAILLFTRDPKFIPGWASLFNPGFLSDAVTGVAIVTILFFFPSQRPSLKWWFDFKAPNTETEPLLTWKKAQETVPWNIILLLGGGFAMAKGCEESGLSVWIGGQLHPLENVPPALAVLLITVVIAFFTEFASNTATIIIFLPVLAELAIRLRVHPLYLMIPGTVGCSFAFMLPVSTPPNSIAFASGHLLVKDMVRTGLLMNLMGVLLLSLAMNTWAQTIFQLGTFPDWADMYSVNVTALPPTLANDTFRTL

[2] = target: T1, NaDC3; assay: cryo-EM structure; type: cell-based
[3] = target: NaDC3 (Homo sapiens, UniProt Q8WWT9, F93Y)
[4] = target: T1, NaDC3; assay: biochemical
[5] = target: the molecule itself; assay: cryo-EM structure

Chain of NaDC3 (Homo sapiens, UniProt Q8WWT9, F93Y) (Q8WWT9 whole entry F93Y): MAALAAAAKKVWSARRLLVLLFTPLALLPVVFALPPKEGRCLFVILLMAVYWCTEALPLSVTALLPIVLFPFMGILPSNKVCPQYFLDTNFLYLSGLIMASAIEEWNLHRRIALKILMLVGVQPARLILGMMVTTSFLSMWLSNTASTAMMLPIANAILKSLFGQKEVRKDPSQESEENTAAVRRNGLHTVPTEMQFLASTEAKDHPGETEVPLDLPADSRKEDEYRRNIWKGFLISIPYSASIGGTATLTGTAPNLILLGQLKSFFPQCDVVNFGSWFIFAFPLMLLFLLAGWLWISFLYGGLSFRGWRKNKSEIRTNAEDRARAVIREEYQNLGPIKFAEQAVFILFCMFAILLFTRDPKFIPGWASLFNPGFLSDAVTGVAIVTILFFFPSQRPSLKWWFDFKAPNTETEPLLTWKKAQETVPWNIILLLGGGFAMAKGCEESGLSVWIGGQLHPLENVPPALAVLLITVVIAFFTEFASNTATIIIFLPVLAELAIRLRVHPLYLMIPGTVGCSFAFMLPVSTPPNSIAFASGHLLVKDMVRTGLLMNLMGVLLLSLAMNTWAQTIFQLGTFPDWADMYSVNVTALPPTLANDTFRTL

Q: How did the Kd [1] turn out when `CC(C(=O)O)C(C)C(=O)O` (centres unmarked) [DMS, 2,3-dimethylsuccinate] was run?
A: 10.2 ± 5.6 µM

Q: `COc1ncc(C)cc1CC[C@@](O)(CC(=O)O)C(=O)O` [PF4a, PF-06761281] was tested. Which IC50 [2] did it give?
A: 39.2 µM

Q: For `O=C(O)CCC(=O)O` [Succ, succinate], which Km [3] is on record?
A: 10.5 ± 5.9 µM

Q: What about the Kd [4] of the same molecule?
A: 17.6 ± 9.8 µM

B1: human high affinity sodium-dicarboxylate cotransporter NaDC3 (natural protein)
chain: T1 sequence (Q8WWT9 1-602)
Q: B1 was tested. Which “stoichiometry N” value [5] did it give?
A: 2
